# Assay results: patent US20220187274A1, “NEMATODE TRAP PLATE AND USE THEREFOR” (priority 2019, published 2022)
# Legend:
# [1] = tested on: C. elegans; assay: Nematode trap plate (PASS) olfaction test, chemotaxis index to a volatile substance; type: in vivo, Caenorhabditis elegans
# Protocol: (Method for Evaluating Test Result) On the basis of the number of nematodes caught in the fall-in cavity which number has been obtained in the above-described manner, a response of the nematodes is evaluated. In the olfaction test or gustation test for evaluating a response of the nematodes to a chemical substance or the like, it is possible to evaluate the response on the basis of, e.g., a chemotaxis index (it may sometimes be abbreviated as “C.I.”). The chemotaxis index, which is used to evaluate the taxis of the test subject to the chemical substance or the like, is defined by in the following manner. That is, the number of nematodes caught in a control fall-in cavity is subtracted from the number of nematodes caught in a fall-in cavity for the test subject so that a difference is yielded, and the difference is divided by the total number of nematodes caught in all the fall-in cavities. In a case where there exist two or more fall-in cavities for the test subject, the total number of nematodes caught in these fall-in cavities is considered as “the number of nematodes caught in the fall-in cavity for the test subject”. Similarly, in a case where there exist two or more control fall-in cavities, the total number of nematodes caught in these control fall-in cavities is considered as “the number of nematodes caught in the control fall-in cavity”. Specifically, the chemotaxis index (C.I.) can be obtained by the following formula, where Ni is the total number of nematodes caught in the fall-in cavity for the test subject and N2 is the total number of nematodes caught in the control fall-in cavity.
# Chemotaxis index (C.I.)=(N1−N2)/(N1+N2).
# In the Examples shown below, tests were conducted by using C. elegans as the nematodes, unless otherwise stated. In each of the Examples, a commercially-available circular plastic dish was used as the container of the nematode trap plate. The size of the plastic dish, the capacity (volume) of a solid medium mainly made of an agar, and the number of fall-in cavities to be formed were set as appropriate in consideration of the purpose of the test, the volume of a sample obtained, and the like. In each case, the fall-in cavities were formed in the shape of a cylinder having a diameter of approximately 5 mm. […] The following description will be made by using the names of the plates shown in Table 1 (plate A1, plate A2, plate B1, plate B2, plate B3, plate B4, and plate B5).
# First, a plate A1 was produced that included (a) two fall-in cavities 2a formed in a left part of a solid medium so as to be arranged side by side along the outer periphery of the solid medium and (b) two fall-in cavities 2b formed in control positions in a right part of the solid medium in a similar manner to the fall-in cavities 2a. […]
# Then, the response was evaluated. […]
# [2] = tested on: C. elegans; assay: Conventional chemotaxis evaluation method on assay plate with sodium azide (Comparative Example 1); type: in vivo, Caenorhabditis elegans; conditions: Comparative Example 1, conventional method; undiluted solution and test solution with a large dilution factor; three tests
# Protocol: As a comparative example, evaluation of a response of nematodes was conducted in accordance with a conventional chemotaxis evaluation method (e.g., Non-Patent Literature 1). […] Similarly to the test in Example 1, an undiluted solution of diacetyl and diluted solutions prepared by diluting diacetyl at five different concentrations were used as test solutions. One drop of the test solution was dripped on each of two positions (test solution spots) on a left half of a circle with a radius of 3 cm about the center of the assay plate. Meanwhile, the buffer solution serving as the control was dripped on each of positions (control spots) that were on a right half of the circle with a radius of 3 cm about the center of the assay plate and that were arranged point symmetrically. […] Based on the captured image of the entire assay plate, an example of which is shown in FIG. 11, the number of nematodes fixed under anesthesia was counted in each of test solution areas extending concentrically from the two test solution spots on the left part and control areas extending concentrically from the two control spots on the right part. […] The response of the nematodes was evaluated with use of the chemotaxis index (C.I.), which was used also in Example 1, assuming that the number of nematodes in the test solution areas was N1 and the number of nematodes in the control areas was N2. […]
# [3] = tested on: hetero group M of free-living soil nematodes (collected at Ogasawara village, Tokyo, Japan); assay: Nematode trap plate olfaction test with soil nematodes other than C. elegans, group M; type: in vivo; conditions: Example 15, plate A1, 1 mM diluted solution, negative = avoidance
# Protocol: (§1) Example 15 was conducted for the purpose of studying applicability of the plate of the present invention to evaluation of a response of nematodes other than C. elegans. Specifically, the test was conducted to examine a response of a hetero group M of free-living soil nematodes (collected at Ogasawara village, Tokyo, Japan) and a hetero group H of free-living soil nematodes (collected at Takayama city, Gifu, Japan) with respect to a volatile substance. A plate A1 identical to that produced in Example 1 was produced. Left fall-in cavities 2a were filled with a test solution, whereas right fall-in cavities 2b were filled with a buffer solution as a control. The test solution used in Example 15 was a diluted solution (1 mM) of vanillin, which is a kind of volatile substance. […] Then, the plate was left at least for an hour under a light-shielded environment. […] The chemotaxis index (C.I.) was obtained in a similar manner to Example 1, and the response of the nematodes was evaluated. […] Note that the tests involving use of the nematode group M and the nematode group H were conducted independently.
# [4] = tested on: hetero group H of free-living soil nematodes (collected at Takayama city, Gifu, Japan); assay: Nematode trap plate olfaction test with soil nematodes other than C. elegans, group H; type: in vivo; conditions: Example 15, plate A1, 1 mM diluted solution, positive = attraction
# Protocol: as §1
smiles,measurement,setting,value
O=Cc1ccccc1 [benzaldehyde],Chemotaxis index (C.I.),"[1]; Example 3, plate B1, each of three dilutions from 10000-fold to 100000-fold of 9.8 M undiluted solution, mean of four tests, maximum 1.0",not less than 0.9
CC(=O)C(C)=O [diacetyl],Chemotaxis index (C.I.),"[1]; Example 1, plate A1, four other dilution concentrations among six, all three tests, positive = attraction",positive values
same,Chemotaxis index (C.I.),"[1]; Example 1, plate A1, two highest concentrations among six (undiluted 11.5 M to 100000-fold dilution), all three tests, negative = escaping",negative values
same,Chemotaxis index (C.I.),"[1]; Example 2, plate A2 (solid medium volume twice that of A1), six concentrations, undiluted to 100000-fold, three tests",the same results as in Example 1
same,Chemotaxis index (C.I.),[2],"a positive value was obtained in one case, and a negative value was obtained in another case"
COc1cc(C=O)ccc1O [vanillin],Chemotaxis index (C.I.),[3],negative C.I. value
same,Chemotaxis index (C.I.),[4],positive C.I. value
